How the values were obtained:
[1] = test system: HIG82 cells; assay: Cell viability by MTT assay (OD 570 nm); assay type: cell-based, rabbit; conditions: HIG-82 cells; 100-3.1 μM peptide, three hours; FIG. 14, 15
Method: 2×10^5 cells (HIG82, MCA205 or Jurkatt) were seeded into 24 well plates. Forty-eight hours later, 100 μM, 50 μM, 25 μM, 6.25 μM and 3.1 μM of the either the death peptide (SEQ ID NO:24), peptide 5 alone (SEQ ID NO:5) or the apoptotic peptide alone (SEQ ID NO:23) was added to the cells. To check for cell viability, three hours later, the media was aspirated and 1 ml of scrum-free media containing 0.25 mg of MTT was added to each well and incubated for 4 hours at 37° C. MTT-containing media was then removed and 1 ml of absolute isopropanol containing 0.4N HCl was added. Photographs were taken of the plates, then the cells were harvested and any debris was centrifuged. OD as taken at λ=570 nm. Each sample point was performed in triplicate.

[2] = test system: MCA205 fibrosarcomas; assay: TUNEL and H&E staining of treated MCA205 fibrosarcomas; assay type: in vivo, C57BL/6 mice; conditions: 11 days daily treatment, sacrificed three hours after last injection; FIG. 16C
Method: To determine whether the death peptide could induce apoptosis in tumor cells and inhibit tumor growth in vivo, C57BL/6 mice bearing day 7 tumors in each […] (seeded with 1×10^5 MCA205 cells) were injected daily for 10 days with a 50 μl volume of 1 mM death peptide (SEQ ID NO:24; DP1) or the apoptotic peptide alone (SEQ ID NO:23; KLA) or a saline mock into both tumors. Five mice were used in each group. Tumor volume was estimated by multiplying maximum length×width^2. Separately, C57BL/6 with single, day 12 tumors were injected with 1 mM death peptide (SEQ ID NO:24; DP1), apoptotic peptide alone (SEQ ID NO:23; KLA) or saline for eleven days. Ten mice comprised each group. On the final day, the mice were injected with the appropriate saline or peptide solution and sacrificed 3 hours post-injection. Tumors were paraffin-embedded, sectioned, and stained for TUNEL and counterstained with methyl green or stained with hematoxylin and eosin to reveal histologic architecture.
To test whether apoptosis was the mechanism of tumor killing in vivo and to study the effects of death peptide administration on tumor architecture, fibrosarcomas treated daily for 11 days with death peptide (SEQ ID NO:24; DP1), apoptotic peptide alone (SEQ ID NO:23, KLA) or tris buffered saline (TBS) were injected with 50 μl of 1 mM DP1, KLA or TBS on the eleventh day and sacrificed three hours later. […]

[3] = test system: arthritic rabbit knee joints; assay: IL-1-induced arthritis, intra-articular peptide, TUNEL/histology and lavage white blood cells; assay type: in vivo; conditions: arthritic rabbit knees; FIG. 18
Method: In addition, the death peptide was administered to rabbits with IL-1-induced arthritis (see Ghivizzani et al. J. Immunol. 159:3604 (1997)). Three arthritic rabbits received the death peptide, three received peptide 5 alone and 3 received the apoptotic protein alone. The rabbits were sacrificed 24 or 72 hours post-injection of the peptides and the rabbit knee capsules were removed for histology analysis and TUNEL staining.

For KLAKLAKKLAKLAK (random peptide library), which “cell viability (MTT, OD570)” value [1] is on record?
The value was “did not impair viability”.

What about the “apoptosis in tumors (TUNEL staining)” value [2] of the same sequence?
The value was “No TUNEL staining”.

And the “apoptosis of hyperplastic synovium” value [3]?
The value was “did not”.
